Source: US5385893A, “Tricyclopolyazamacrocyclophosphonic acids, complexes and derivatives thereof, for use as contrast agents” (The Dow Chemical Company, priority 1993, dated 1995)

Columns and labels:
[1] = Biodistribution of 153Sm complexes in rats (% injected dose per organ, NaI scintillation counting after tail vein injection); type: in vivo, Sprague Dawley rats; details: 2 hours post injection; for Biodistribution: Brain / Biodistribution: Heart / Biodistribution: Kidney / Biodistribution: Large Intestine / Biodistribution: Liver / Biodistribution: Lung / Biodistribution: Small Intestine / Biodistribution: Spleen / Biodistribution: Stomach / Biodistribution: Blood / Biodistribution: Bone / Biodistribution: Muscle: i.v. tail vein; for Biodistribution: Blood: blood assumed 6.5% of body weight; for Biodistribution: Bone: femur x 25; for Biodistribution: Muscle: muscle assumed 43% of body weight; for Ratio Bone/Blood / Ratio Bone/Liver / Ratio Bone/Muscle / Ratio Bone/Spleen: ratio of average % injected dose
Experimental: A stock ^159 GdCl3 (or ^153 SMCl3) solution was prepared by adding 2 μL of 3×10^-4 M ^159 GdCl3 in 0.1N HCl to 2 mL of a 3×10^-4 M GdCl3 carrier solution. Appropriate ligand solutions were then prepared in deionized water. The 1:1 ligand/metal complexes were then prepared by combining the ligands (dissolved in 100-500 μL of deionized water) with 2 mL of the stock ^159 GdCl3 solution, followed by through mixing to give an acidic solution (pH=2). The pH of the solution was then raised to 7.0 using 0.1N NaOH. The percent metal as a complex was then determined by passing a sample of the complex solution through a Sephadex™ G-50 column, eluting with 4:1 saline ([…]) and collecting 2×3 mL fractions. The amount of radioactivity in the combined elutions was then compared with that left on the resin (non-complexed metal is retained on the resin). The pH stability profile was generated by adjusting the pH of an aliquot of the complex solution using 1M NaOH or 1M HCl and determining the percent of the metal existing as a complex using the ion exchange method described above. The Sm results are known by expermintal comparison to be identical for complexation and biodistribution of the ligands of this invention.
Sprague Dawley rats were allowed to acclimate for five days then injected with 100 μL of the complex solution via a tail vein. The rats weighed between 150 and 250 g at the time of injection. […] The amount of radioactivity in each tissue was determined by counting in a NaI scintillation counter coupled to a multichannel analyzer. The counts were compared to the counts in 100 μL standards in order to determine the percentage of the dose in each tissue or organ.
The percent dose in blood was estimated assuming blood to be 6.5% of the total body weight. The percent dose in bone was estimated by multiplying the percent dose in the femur by 25. The percent dose in muscle was estimated assuming muscle to be 43% of the total body weight.
In addition to organ biodistribution, chelates of the compounds of Formula (I) were evaluated for efficiency of bone localization since phosphonates are known for their ability to bind to hydroxyapatite.

[2] = Complexation: percent samarium metal as a complex (Sephadex column); type: physicochemical
Experimental: Metal ligand complexes were prepared by various methods. The methods included mixing of the metal and ligand in aqueous solution and adjusting the pH to the desired value. Complexation was done in solutions containing salts and/or buffers as well as water.
For example, a solution of the ligand is prepared by dissolving the ligand in deionized water (about pH=2). A ligand/metal complex was then prepared by combining the ligand solution with aqueous SmCl3.H2 O (3×^-4 M in 0.01N HCl) containing tracer ^153 SmCl3. After thorough mixing, the percent metal as a complex was determined by passing a sample of the complex solution through a Sephadex™ column, eluting with 4:1 saline (0.85% NaCl/NH4 OH), and collecting 2×3 mL fractions. The amount of radioactivity in the combined elutions was then compared with that left on the resin. Under these conditions, complex was removed with the eluent and non-complexed metal is retained on the resin. By this method complexation was determined to usually be about 95% or greater.
Using the above procedure, the complexes of samarium with […]

[3] = Biolocalization of complexes having an overall charge of +1 (bone uptake); type: in vivo; details: complex having an overall charge of +1
[4] = in vivo; cited from earlier work
[5] = Prohance versus Magnevist; cited from earlier work
[6] = breakdown of the blood/brain barrier allows perfusion; cited from earlier work

| SMILES | Biodistribution: Brain [1] | Biodistribution: Heart [1] | Biodistribution: Kidney [1] | Biodistribution: Large Intestine [1] | Biodistribution: Liver [1] | Biodistribution: Lung [1] | Biodistribution: Small Intestine [1] | Biodistribution: Spleen [1] | Biodistribution: Stomach [1] | Biodistribution: Blood [1] | Biodistribution: Bone [1] | Biodistribution: Muscle [1] | Ratio Bone/Blood [1] | Ratio Bone/Liver [1] | Ratio Bone/Muscle [1] | Ratio Bone/Spleen [1] | also measured |
| --- | --- | --- | --- | --- | --- | --- | --- | --- | --- | --- | --- | --- | --- | --- | --- | --- | --- |
| CCOP(=O)([O-])CN1Cc2cccc(n2)CN(CP(=O)([O-])OCC)Cc2cccc(n2)C1.[153Sm+3] [^153 Sm-BP2EP, ^53 Sm N,N'-bis(methylenephosphonic acid ethyl ester)-2,11-diaza[3.3](2,6)pyridinophane] | 0.01 % INJECTED DOSE | 0.04 % INJECTED DOSE | 0.74 % INJECTED DOSE | 0.25 % INJECTED DOSE | 5.97 % INJECTED DOSE | 0.19 % INJECTED DOSE | 0.33 % INJECTED DOSE | 0.32 % INJECTED DOSE | 0.36 % INJECTED DOSE | 0.45 % INJECTED DOSE | 39.82 % INJECTED DOSE | 1.21 % INJECTED DOSE | 88 | 7 | 33 | 124 |  |
| O=P(O)(O)CN1Cc2cccc(n2)CN(CP(=O)(O)O)Cc2cccc(n2)C1 [BP2P, N,N'-bis (methylenephosphonic acid) -2,11-diaza[3.3](2,6)pyridinophane] |  |  |  |  |  |  |  |  |  |  |  |  |  |  |  |  | percent metal as a complex ([2]; ligand:metal ratio of 3:1): 95% |
| O=C(O)CN1Cc2cccc(n2)CN(CC(=O)O)Cc2cccc(n2)C1 [BP2A, N,N'-diacetic acid-2,11-diaza[3.3]-(2,6)pyridinophane] |  |  |  |  |  |  |  |  |  |  |  |  |  |  |  |  | percent metal as a complex ([2]; ligand:metal ratio of 4:1): 99%; bone uptake of complex [3]: displays bone uptake |
| CC(O)CN1CCN(CC(=O)[O-])CCN(CC(=O)[O-])CCN(CC(=O)[O-])CC1.[Gd+3] (stereo not drawn) [Prohance, [1,4,7-tris(carboxymethyl)-10-(2-hydroxypropyl)-1,4,7,10-tetraazacyclododecanato]-gadolinium] |  |  |  |  |  |  |  |  |  |  |  |  |  |  |  |  | distribution and elimination [4]: freely distribute in extracellular fluid followed by efficient elimination through the renal system; side effects [5]: fewer side effects than Magnevist |
| O=C([O-])CN1Cc2cccc(n2)CN(CC(=O)[O-])Cc2cccc(n2)C1.[153Sm+3] [^153 Sm-BP2A, ^153 Sm N,N'-diacetic acid-2,11-diaza[3.3](2,6)pyridinophane] | 0.01 % INJECTED DOSE | 0.02 % INJECTED DOSE | 0.95 % INJECTED DOSE | 0.04 % INJECTED DOSE | 0.68 % INJECTED DOSE | 0.06 % INJECTED DOSE | 0.80 % INJECTED DOSE | 0.01 % INJECTED DOSE | 0.05 % INJECTED DOSE | 0.43 % INJECTED DOSE | 27.98 % INJECTED DOSE | 0.80 % INJECTED DOSE | 65 | 41 | 35 | 2,798 |  |
| CNC[C@H](O)[C@@H](O)[C@H](O)[C@H](O)CO.CNC[C@H](O)[C@@H](O)[C@H](O)[C@H](O)CO.O=C([O-])CN(CCN(CC(=O)[O-])CC(=O)O)CCN(CC(=O)[O-])CC(=O)O.[Gd+3] [Magnevist, complex of gadolinium with diethylenetriaminepentaacetic acid] |  |  |  |  |  |  |  |  |  |  |  |  |  |  |  |  | distribution and elimination [4]: freely distribute in extracellular fluid followed by efficient elimination through the renal system; usefulness in the diagnosis of brain lesions [6]: extremely valuable in the diagnosis of brain lesions |
| CCOP(=O)(O)CN1Cc2cccc(n2)CN(CP(=O)(O)OCC)Cc2cccc(n2)C1 [BP2EP, N,N'-bis(methylenephosphonic acid ethyl ester)-2,11-diaza[3.3](2,6)pyridinophane] |  |  |  |  |  |  |  |  |  |  |  |  |  |  |  |  | percent metal as a complex ([2]; ligand:metal ratio of 4:1): 98% |
| O=P([O-])([O-])CN1Cc2cccc(n2)CN(CP(=O)([O-])[O-])Cc2cccc(n2)C1.[153Sm+3] [^153 Sm-BP2P, ^153 Sm N,N'-bis(methylenephosphonic acid)-2,11-diaza[3.3](2,6)pyridinophane] | 0.01 % INJECTED DOSE | 0.07 % INJECTED DOSE | 1.21 % INJECTED DOSE | 0.13 % INJECTED DOSE | 3.71 % INJECTED DOSE | 0.17 % INJECTED DOSE | 0.39 % INJECTED DOSE | 0.05 % INJECTED DOSE | 0.20 % INJECTED DOSE | 0.87 % INJECTED DOSE | 60.08 % INJECTED DOSE | 1.53 % INJECTED DOSE | 69 | 16 | 39 | 1,201 |  |
| O=C([O-])CN1Cc2cccc(n2)CN(CC(=O)[O-])Cc2cccc(n2)CN(CC(=O)[O-])Cc2cccc(n2)C1.[153Sm+3] [^153 Sm-TP3A, ^153 Sm N,N',N"-triacetic acid-2,11,20-diaza[3.3.3](2,6)pyridinophane] |  | 0.016 % INJECTED DOSE | 0.639 % INJECTED DOSE | 0.156 % INJECTED DOSE | 0.570 % INJECTED DOSE | 0.047 % INJECTED DOSE | 1.426 % INJECTED DOSE | 0.068 % INJECTED DOSE | 0.036 % INJECTED DOSE | 0.437 % INJECTED DOSE | 1.495 % INJECTED DOSE | 0.833 % INJECTED DOSE | 3 | 3 | 2 | 22 |  |
| O=C(O)CN1Cc2cccc(n2)CN(CC(=O)O)Cc2cccc(n2)CN(CC(=O)O)Cc2cccc(n2)C1 [TP3A, N,N',N"-triacetic acid-2,11,20-diaza[3.3.3](2,6)pyridinophane] |  |  |  |  |  |  |  |  |  |  |  |  |  |  |  |  | percent metal as a complex ([2]; ligand:metal ratio of 3:1): 98.6% |
